Results reported in patent US20210069272A1, “METHODS FOR SKIN WHITENING, ULTRAVIOLET RADIATION PROTECTION AND SUPPRESSION OF GLYCATION USING GREEN MANGO EXTRACTS AND COMPOUNDS OBTAINED THEREFROM” (TCI CO., LTD., priority 2019, published 2021).

Legend:
porcine collagen = test: Anti-glycation assay, AGEs formation due to collagen glycation with fructose; type: biochemical; conditions: 100 μg/mL aqueous solution, 50° C., 24 hours
Method: In order to evaluate the anti-glycation activity of the green mango extract, an anti-glycation assay was performed to determine the inhibitory effect of the green mango extract described in Example 1 on glycation of porcine collagen. Briefly, a 60 mg/mL collagen solution (containing 0.06% sodium azide) and a 1.5 M fructose solution were first prepared using a 200 mM phosphate buffer (pH 7.4). For collagen to undergo glycation, a mixture of 0.2 mL of the collagen solution and 0.2 mL of the fructose solution was mixed thoroughly with 0.2 mL of the green mango extract sample at 140, 70, 14, 1.4, or 0.14 mg/mL (diluted with deionized water), or mixed with deionized water (as a control). The reaction mixtures were incubated at 50° C. for 24 hours. Thereafter, aminoguanidine (AG, purchased from Sigma) was added to terminate the glycation reaction. […] The reaction mixtures were incubated at 50° C. for 24 hours, and the fluorescence intensity of each of the mixtures (0.1 mL) at 0 hours and 24 hours was measured to calculate the rate of AGEs formation due to collagen glycation.

melanoma cells B16F10 = test: Melanin production assay in melanoma cells B16F10; type: cell-based, mouse; conditions: 0.25 mg/mL, 48 hours
Method: The melanin levels in B 16F10 melanoma cells were determined according to procedures described below. Cells were harvested from the cell culture treated as indicated. The cells were washed with PBS and treated with trypsin for 3 minutes. The suspended cells were collected by centrifugation (400×g, 5 minutes), washed twice with PBS, and then resuspended in 200 μL of PBS. The cell suspension was frozen in liquid nitrogen for 10 minutes and then left at room temperature for about 30 minutes until completely thawed, followed by centrifugation (12,000 g, 3 minutes) to remove the supernatant. The remaining cell pellet was mixed thoroughly with 120 μL of 1 N sodium hydroxide aqueous solution, and heated at 60° C. for 1 hour to obtain a cell lysate containing dissolved melanin. 100 μL of the cell lysate was transferred to a 96-well plate, and the absorbance at 450 nm (OD450) was measured using an enzyme-linked immunosorbent assay (ELISA) reader (BioTek). The relative melanin level is calculated according to the following formula: Relative melanin level (%)=(OD450each group/OD450mock control)×100% In order to examine the effect of the green mango extract on melanin production, the melanoma cells B16F10 was assayed for melanin production after treatment with the green mango extract described in Example 1. […]

O=C(OCC1OC(OC(=O)c2cc(O)c(O)c(O)c2)C(OC(=O)c2cc(O)c(O)c(O)c2)C(OC(=O)c2cc(O)c(O)c(O)c2)C1OC(=O)c1cc(O)c(O)c(O)c1)c1ccc(O)cc1 (stereo not drawn) [formula (I)]
AGEs formation compared to the control (porcine collagen): about 60.2%

O=C(OCC1OC(OC(=O)c2cc(O)c(O)c(O)c2)C(OC(=O)c2cc(O)c(O)c(O)c2)C(OC(=O)c2cc(O)c(O)c(O)c2)C1OC(=O)c1cc(O)c(O)c(O)c1)c1cc(O)c(O)c(O)c1 (stereo not drawn) [formula (II)]
AGEs formation compared to the control (porcine collagen): ~73.7%

O=c1cc(CO)occ1O [kojic acid]
inhibitory effect on melanin production, green mango extract versus kojic acid at the same concentration (melanoma cells B16F10): comparable
